# PubChem BioAssay (NCI)
#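 Method: 48-hour compound exposure of cells in 96-well plates, five concentrations, linear interpolation of endpoints. GI50 = concentration required for 50% inhibition of growth. TGI: total growth inhibition.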
# Columns and labels:
# Experiment in all cases: DTP human tumour cell line panel, 48 h
# UACC-62 melanoma = test system: UACC-62 melanoma
# MOLT-4 leukemia = test system: MOLT-4 leukemia
# MDA-MB-468 breast = test system: MDA-MB-468 breast
# CAKI-1 renal = test system: CAKI-1 renal
# LOX IMVI melanoma = test system: LOX IMVI melanoma
# RXF 393 renal = test system: RXF 393 renal
# HOP-62 NSCLC = test system: HOP-62 NSCLC
# OVCAR-4 ovarian = test system: OVCAR-4 ovarian
# OVCAR-5 ovarian = test system: OVCAR-5 ovarian
# UO-31 renal = test system: UO-31 renal
# SK-MEL-2 melanoma = test system: SK-MEL-2 melanoma
# SNB-19 CNS = test system: SNB-19 CNS
# HCT-15 colon = test system: HCT-15 colon
# NCI-H23 lung = test system: NCI-H23 lung
# K-562 leukemia = test system: K-562 leukemia
# SNB-75 CNS = test system: SNB-75 CNS
# SK-MEL-28 melanoma = test system: SK-MEL-28 melanoma
# COLO 205 colon = test system: COLO 205 colon
# EKVX NSCLC = test system: EKVX NSCLC
# MDA-MB-231 breast = test system: MDA-MB-231 breast
# HT29 colon = test system: HT29 colon
# IGROV1 ovarian = test system: IGROV1 ovarian
# NCI-H226 lung = test system: NCI-H226 lung
# MALME-3M melanoma = test system: MALME-3M melanoma
# NCI-H460 lung = test system: NCI-H460 lung
# SF-268 CNS = test system: SF-268 CNS
# OVCAR-8 ovarian = test system: OVCAR-8 ovarian
# T-47D breast = test system: T-47D breast
# SF-539 CNS = test system: SF-539 CNS
compound,measurement,setting,value
CCCCSc1nc(Nc2ccc(/C(C)=N/NC(N)=S)cc2)c(C#N)c(-c2ccc(F)cc2)n1,GI50,UACC-62 melanoma,2.91 µM
same,TGI,UACC-62 melanoma,12 µM
same,GI50,MOLT-4 leukemia,3.63 µM
same,TGI,MOLT-4 leukemia,> 100 µM
same,GI50,MDA-MB-468 breast,2.26 µM
same,TGI,MDA-MB-468 breast,8.99 µM
same,GI50,CAKI-1 renal,1.71 µM
same,TGI,CAKI-1 renal,4.97 µM
same,GI50,LOX IMVI melanoma,1.88 µM
same,TGI,LOX IMVI melanoma,10.1 µM
same,GI50,RXF 393 renal,1.97 µM
same,TGI,RXF 393 renal,5.49 µM
same,GI50,HOP-62 NSCLC,2.25 µM
same,TGI,HOP-62 NSCLC,5.1 µM
same,GI50,OVCAR-4 ovarian,1.85 µM
same,TGI,OVCAR-4 ovarian,85.5 µM
same,GI50,OVCAR-5 ovarian,12.5 µM
same,TGI,OVCAR-5 ovarian,50.5 µM
same,GI50,UO-31 renal,0.761 µM
same,TGI,UO-31 renal,3.01 µM
same,GI50,SK-MEL-2 melanoma,4.4 µM
same,TGI,SK-MEL-2 melanoma,20 µM
same,GI50,SNB-19 CNS,2.51 µM
same,TGI,SNB-19 CNS,8.31 µM
same,GI50,HCT-15 colon,1.38 µM
same,TGI,HCT-15 colon,16.8 µM
same,GI50,NCI-H23 lung,1.56 µM
same,TGI,NCI-H23 lung,4.69 µM
same,GI50,K-562 leukemia,4.46 µM
same,TGI,K-562 leukemia,> 100 µM
same,GI50,SNB-75 CNS,1.6 µM
same,TGI,SNB-75 CNS,6.54 µM
same,GI50,SK-MEL-28 melanoma,3.83 µM
same,TGI,SK-MEL-28 melanoma,17.9 µM
same,GI50,COLO 205 colon,4.03 µM
same,TGI,COLO 205 colon,23.1 µM
same,GI50,EKVX NSCLC,3.67 µM
same,TGI,EKVX NSCLC,17.2 µM
same,GI50,MDA-MB-231 breast,1.03 µM
same,TGI,MDA-MB-231 breast,4.28 µM
same,GI50,HT29 colon,5.89 µM
same,TGI,HT29 colon,> 100 µM
same,GI50,IGROV1 ovarian,12 µM
same,TGI,IGROV1 ovarian,30.3 µM
same,GI50,NCI-H226 lung,1.59 µM
same,TGI,NCI-H226 lung,5.29 µM
same,GI50,MALME-3M melanoma,2.39 µM
same,TGI,MALME-3M melanoma,11.5 µM
same,GI50,NCI-H460 lung,0.578 µM
same,TGI,NCI-H460 lung,2.25 µM
same,GI50,SF-268 CNS,13.6 µM
same,TGI,SF-268 CNS,89.3 µM
same,GI50,OVCAR-8 ovarian,3.85 µM
same,TGI,OVCAR-8 ovarian,21.1 µM
same,GI50,T-47D breast,1.19 µM
same,TGI,T-47D breast,18 µM
same,GI50,SF-539 CNS,1.4 µM
same,TGI,SF-539 CNS,4.49 µM
